In patent US20100196275A1, “Methods and products for neutralizing the harmful effects of combustion products” (priority 2006, published 2010):
Entries after “also recorded” stand apart in the source; their conditions may differ.

Key:
[1] = test system: nucleotide excision repair (NER); settings: previously found, earlier publications; cited from earlier work
[2] = rats; cited from earlier work
supF gene = test: supF shuttle vector pSP189 mutation assay in NHLF; type: cell-based, human; parameters: dose or concentration left out as unconfirmed; settings: pSP189 modified with Acr, replicated in NHLF
Description: Determination of Mutations Induced by Acr-DNA Adducts. The methods used for mutation detection and for mutational spectrum determination were the same as previously described (Feng, Z., Hu, W., Amin, S., & Tang, M.-s. (2003) Biochemistry 42, 7848-7854). Briefly, shuttle vector pSP189 plasmid DNA was modified with different concentrations of Acr, and transfected into NHLF for replication. Plasmids were recovered 72 h after transfection, and replicated plasmids were then transformed into MB7070 E. coli indicator cells. The supF gene in plasmids isolated from mutant white colonies were then sequenced.

[3] = test system: nucleotide excision repair (NER); test: In vitro DNA damage-specific repair synthesis assay; type: biochemical, human
Description: (§1) Determination of the Effect of Acr Treatment on DNA Repair. Host cell reactivation (HCR) and in vitro DNA repair synthesis assays were performed as previously described to determine the effects of Acr treatment on DNA repair in human cells (Feng, Z., Hu, W., & Tang, M.-s. (2004) Proc. Nat. Acad. Sci. 101, 8598-8602; Feng, Z., Hu, W., Marnett, L., & Tang, M.-s. Mutat. Res. in press).

[4] = test system: nucleotide excision repair (NER); test: Host cell reactivation (HCR) assay; type: cell-based, human; settings: NHLF treated with Acr for 1 h, BPDE-modified luciferase plasmid
Description: as §1

| Structure (SMILES) | effect on cellular NER capacity [1] | bladder tumour occurrence [2] | G to T transversions among base substitution mutants sequenced (supF gene) | mutation frequency (supF gene) | share of G to T transversions among base substitutions (supF gene) | inhibitory effect, cell lysates directly treated versus whole cells treated ([3]; NHLF) | effect on repair of BPDE-DNA adducts (NER capacity) ([3]; NHLF cell extracts, BPDE-modified pUC18) | effect on repair of BPDE-DNA adducts (NER capacity) [4] |
| --- | --- | --- | --- | --- | --- | --- | --- | --- |
| CCCCCC(O)/C=C/C=O (stereo not drawn) [4-HNE] | greatly reduce cellular nucleotide excision repair (NER) capacity | – | – | – | – | – | – | – |
| C=CC=O [Acr, Acrolein] | – | greatly enhances urinary bladder papilloma occurrence in rats; also recorded: cause bladder cancer in rats | 28 out of 55 | 120×10^−4 | more than 50% | much more pronounced in cell lysates directly treated with Acr than whole cells treated with Acr | greatly inhibit NER for BPDE-induced DNA damage | greatly inhibit NER for BPDE-induced DNA damage |
| O=CCC=O [MDA] | greatly reduce cellular nucleotide excision repair (NER) capacity | – | – | – | – | – | – | – |
